Source: ChEMBL document CHEMBL1157501, “Novel fluorinated acridone derivatives. Part 1: synthesis and evaluation as potential anticancer agents” (Bioorg Med Chem Lett, 2008)

Legend:
UACC-257 = test: Growth inhibition of human UACC257 cells at 10 uM relative to control; assay type: functional
BT-20 = test: Antiproliferative activity against human BT20 cells after 72 hrs by Alamar Blue assay; assay type: functional, cell-based; conditions: BT-20, 72 h
SK-MEL-28 = test: Growth inhibition of human SK-MEL-28 cells at 10 uM relative to control; assay type: functional
SNB-75 = test: Growth inhibition of human SNB75 cells at 10 uM relative to control; assay type: functional
[1] = Growth inhibition of human HL60(TB) cells at 10 uM relative to control; assay type: functional, HL-60(TB); conditions: HL-60
786-0 = test: Growth inhibition of human 786-0 cells at 10 uM relative to control; assay type: functional
MOLT-4 = test: Growth inhibition of human MOLT4 cells at 10 uM relative to control; assay type: functional
A549 = test: Growth inhibition of human A549 cells at 10 uM relative to control; assay type: functional
CAKI-1 = test: Growth inhibition of human CAKI1 cells at 10 uM relative to control; assay type: functional
HT-29 = test: Growth inhibition of human HT29 cells at 10 uM relative to control; assay type: functional
Jurkat = test: Antiproliferative activity against human Jurkat cells after 72 hrs by Alamar Blue assay; assay type: functional, cell-based
SW480 = test: Antiproliferative activity against human SW480 cells after 72 hrs by Alamar Blue assay; assay type: functional, cell-based; conditions: SW480, 72 h
T47D = test: Growth inhibition of human T47D cells at 10 uM relative to control; assay type: functional
HCT-116 = test: Growth inhibition of human HCT116 cells at 10 uM relative to control; assay type: functional
MCF7 = test: Growth inhibition of human MCF7 cells at 10 uM relative to control; assay type: functional
SF-295 = test: Growth inhibition of human SF295 cells at 10 uM relative to control; assay type: functional
HOP-92 = test: Growth inhibition of human HOP92 cells at 10 uM relative to control; assay type: functional
BT-549 = test: Antiproliferative activity against human BT549 cells after 72 hrs by alamar blue assay; assay type: functional, cell-based; conditions: BT-549, 72 h
CCRF-CEM = test: Growth inhibition of human CCRF-CEM cells at 10 uM relative to control; assay type: functional

Compound	inhibition at 10 µM (UACC-257) [%]	IC50 (BT-20) [µM]	inhibition at 10 µM (SK-MEL-28) [%]	inhibition at 10 µM (SNB-75) [%]	inhibition at 10 µM [1] [%]	inhibition at 10 µM (786-0) [%]	inhibition at 10 µM (MOLT-4) [%]	inhibition at 10 µM (A549) [%]	inhibition at 10 µM (CAKI-1) [%]	inhibition at 10 µM (HT-29) [%]	IC50 (Jurkat) [µM]	IC50 (SW480) [µM]	inhibition at 10 µM (T47D) [%]	inhibition at 10 µM (HCT-116) [%]	inhibition at 10 µM (MCF7) [%]	inhibition at 10 µM (SF-295) [%]	inhibition at 10 µM (HOP-92) [%]	IC50 (BT-549) [µM]	inhibition at 10 µM (CCRF-CEM) [%]
Cc1c2c(nc3ccc(Cl)cc13)CC(C(F)(F)F)CC2=O (configuration not stated)	< 20	6.7	< 20	< 20	< 20	< 20	95	< 20	< 20	43	5.1	15.3	43	< 20	95	< 20	58	12.1	–
O=C1CC(C(F)(F)F)Cc2nc3ccc(Br)cc3c(-c3ccccc3F)c21 (configuration not stated)	< 20	23.3	< 20	< 20	29	62	< 20	< 20	45	< 20	11.6	15.5	< 20	35	< 20	< 20	48	17.4	28
O=C1CC(C(F)(F)F)Cc2nc3ccccc3c(-c3ccccc3)c21 (configuration not stated)	77	–	< 20	< 20	45	< 20	< 20	< 20	< 20	< 20	–	–	< 20	70	< 20	< 20	70	–	< 20
